Source: patent publication US20040077639A1, “Methods for the treatment of respiratory diseases and conditions using a selective iNOS inhibitor” (priority 2002, published 2004)
Entries after “also recorded” stand apart in the source; their conditions may differ. Structures can show the parent of a compound that is named as a salt. Where two headings read alike, the source gives them in different places. Values belong to the compound of their own block, whether it stands above or below them.

Key:
[1] = system: nitrite production in human cartilage explants; assay: Human cartilage explant assay (nitrite production after IL-1β); assay type: cell-based; conditions: inhibition of nitrite production, IL-1β-stimulated explants
Procedure: Human cartilage Explant Assay
Bone pieces are rinsed twice with Dulbecco's Phosphate Buffered Saline (GibcoBRL) and once with Dulbecco's Modified Eagles Medium (GibcoBRL) and placed into a petri dish with phenol red free Minimum Essential Medium (MEM) (GibcoBRL). Cartilage was cut into small explants of approximately 15-45 mg in weight and one or two explants per well are placed into either 96 or 48 well culture plates with 200-500 μL of culture media per well. The culture media was either a custom modification of Minimum Essential Medium(Eagle) with Earle's salts (GibcoBRL) prepared without L-Arginine, without L-Glutamine and without phenol red or a custom modification of serumless Neuman and Tytell (GibcoBRL) medium prepared without L-arginine, without insulin, without ascorbic acid, without L-glutamine and without phenol red. Both are supplemented before use with 100 μM L-Arginine (Sigma), 2 mM L-glutamine, 1×HL-1 supplement (BioWhittaker), […] ascorbic acid (Sigma) and 150 pg/ml recombinant human IL-1[…] (RD Systems) to induce nitric oxide synthase. Compounds are then added in 10 μL aliquots and the explants incubated at 37° C. with 5% CO2 for 18-24 hours. The day old supernatant is then discarded and replaced with fresh culture media containing recombinant human IL-1β and compound and incubated for another 20-24 hours. […] All samples are done in quadruplicate. Unstimulated controls are cultured in media in the absence of recombinant human IL-1β. IC50 values (Table I) are determined from plotting the percent inhibition of nitrite production at six different concentrations of inhibitor.

[2] = system: LPS-induced increase in plasma nitrite/nitrate levels; assay: In vivo assay: endotoxin (LPS)-treated rats, plasma nitrite/nitrate; design: species or system rat; conditions: oral administration, plasma nitrite/nitrate 5 hours post-treatment
Procedure: Plasma nitrite/nitrate levels can be determined 5 hours post-treatment.

airway inflammation = conditions: murine model of allergic asthma; by down-regulation of chemokine expression; cited from earlier work
[3] = Clinical study: tolerability, FEV1, blood pressure, heart rate, laboratory parameters; assay type: in vivo, human
Procedure: (§1) A single center study was performed at the National Heart and Lung Institute (NHLI) Clinical Studies Unit in London, UK. The clinical protocol was submitted and accepted by the Ethics Committee of the Royal Brompton Hospital Trust, and the study was carried out according to Good Clinical Practice standards. Each subject provided written informed consent.
(§2) Twenty-four, adult, healthy volunteers and 24 patients with mild asthma participated in this study. All subjects were lifelong non-smokers. Asthma patients (n=24) had mild asthma according to American Thoracic Society Criteria, with medication on an as required basis with inhaled albuterol only. […] All asthmatic patients had baseline exhaled breath NO levels of >15 parts per billion (ppb). Healthy control (n=24) subjects were matched for age and sex, and had no clinically significant disease. Healthy subjects were required to have baseline exhaled NO levels between 4 and 9 ppb.
The study included 2 panels of healthy volunteers and asthmatic patients who received in a double-blind, randomized manner, a single dose of oral compound NN or placebo. The study was carried out in two phases according to the dose of compound NN under investigation. The first panel consisted of patients with mild-to-moderate asthma (n=12) and healthy subjects (n=12) who received single doses of 20 mg of compound NN and placebo, while the second panel of mild-to-moderate asthmatics (n=12) and healthy subjects (n=12) received single doses of 200 mg of compound NN and placebo. No patient or subject participated in both panels of this study. Evaluation of the first panel was completed before moving on to the second panel. The study evaluated the tolerability and pharmacokinetics of orally-administered compound NN and monitored levels of exhaled breath NO.
Forced expiratory volume in 1 sec (FEV1) and heart rate data had no significant deviations from normality using the Shapiro-Wilks test, therefore parametric statistical methods were used, and the significance of the change from baseline was tested using a paired […]. […]

[4] = system: exhaled breath nitric oxide (NO); assay: Clinical study: exhaled breath NO after single oral dose; assay type: in vivo, human
Procedure: as §1, §2
The study included 2 panels of healthy volunteers and asthmatic patients who received in a double-blind, randomized manner, a single dose of oral compound NN or placebo. The study was carried out in two phases according to the dose of compound NN under investigation. […] The study evaluated the tolerability and pharmacokinetics of orally-administered compound NN and monitored levels of exhaled breath NO.
Measurement of exhaled NO: Exhaled NO was measured using a chemoluminescence analyzer (Logan 2000, Rochester, UK) and methods in accordance with International Guidelines. […] Two successive recordings were taken, and the average value was calculated.
Statistical methods for clinical data: Exhaled NO data, including change from baseline and the percentage change, were tested for normality using the Shapiro-Wilks test. […] The area under the curve (AUC) for the change from baseline and the percentage change, and the differences between active and placebo were calculated. […]

i-NOS = i-NOS (Homo sapiens, UniProt P35228); assay: Comparison of i-NOS inhibition with NIL amide and NIL dimethylamide; assay type: biochemical
Sequence of i-NOS (P35228 whole entry): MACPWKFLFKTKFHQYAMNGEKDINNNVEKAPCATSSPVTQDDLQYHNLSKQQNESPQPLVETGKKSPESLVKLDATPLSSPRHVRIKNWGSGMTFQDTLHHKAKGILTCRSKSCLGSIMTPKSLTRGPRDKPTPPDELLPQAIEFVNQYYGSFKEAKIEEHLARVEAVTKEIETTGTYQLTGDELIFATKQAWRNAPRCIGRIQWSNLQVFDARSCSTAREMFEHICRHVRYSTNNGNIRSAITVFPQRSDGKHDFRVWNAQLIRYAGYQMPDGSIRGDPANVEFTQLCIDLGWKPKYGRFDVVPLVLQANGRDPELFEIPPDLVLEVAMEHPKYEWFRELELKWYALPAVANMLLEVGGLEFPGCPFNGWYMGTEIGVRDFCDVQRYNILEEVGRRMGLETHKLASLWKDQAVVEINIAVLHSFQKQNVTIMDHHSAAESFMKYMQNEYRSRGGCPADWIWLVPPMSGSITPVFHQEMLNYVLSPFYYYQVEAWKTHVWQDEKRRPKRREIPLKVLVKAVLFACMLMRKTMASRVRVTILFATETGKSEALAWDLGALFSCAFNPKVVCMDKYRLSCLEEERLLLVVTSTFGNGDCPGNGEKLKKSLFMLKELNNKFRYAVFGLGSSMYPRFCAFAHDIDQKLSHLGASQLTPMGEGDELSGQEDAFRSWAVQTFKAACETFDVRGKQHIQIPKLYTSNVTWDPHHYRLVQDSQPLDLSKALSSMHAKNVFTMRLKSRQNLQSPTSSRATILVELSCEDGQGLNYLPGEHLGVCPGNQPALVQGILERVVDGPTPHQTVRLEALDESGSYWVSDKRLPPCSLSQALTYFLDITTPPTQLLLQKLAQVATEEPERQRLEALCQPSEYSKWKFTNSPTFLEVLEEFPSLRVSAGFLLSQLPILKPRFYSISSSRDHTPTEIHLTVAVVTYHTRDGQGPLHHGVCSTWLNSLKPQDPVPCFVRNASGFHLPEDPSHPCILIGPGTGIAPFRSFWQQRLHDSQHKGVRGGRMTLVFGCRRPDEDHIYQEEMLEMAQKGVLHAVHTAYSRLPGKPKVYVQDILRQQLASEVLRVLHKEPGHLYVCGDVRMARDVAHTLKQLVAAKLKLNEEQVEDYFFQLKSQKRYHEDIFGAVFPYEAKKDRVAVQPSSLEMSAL

exhaled NO = conditions: high doses, literature; cited from earlier work
[5] = Rattus norvegicus, read-out: ED50

Compound: COC[C@](N)(CSCCNC(C)=N)C(=O)O [Example J, 2-[[[2-[(1-Iminoethyl)amino]ethyl]thio]methyl]-O-methyl-D-serine, Dihydrochloride]
IC50 [1]: 8.2 µM

Compound: CC(=N)NC/C(F)=C\CC[C@](C)(N)C(=O)O [Example HH, (2S,5E)-2-amino-2-methyl-6-fluoro-7-[(1-iminoethyl)amino]-5-heptenoic acid, Dihydrochloride]
IC50 ([1]; Homo sapiens): 0.4 µM
ED50 [2, 5]: 0.4 mg/kg

Compound: Cl.N=C1CCCC[C@H](CCCC[C@@H](N)C(=O)O)N1.O.O.O [Example Y, (αR,2S)-α-aminohexahydro-7-imino-1H-azepine-2-hexanoic acid, Trihydrate Hydrochloride]
ED50 [2, 5]: < 3 mg/kg

Compound: CCSC(=N)N [S-ethylisothiourea]
effect on airway inflammation (airway inflammation): suppressed airway inflammation

Compound: CC(=N)NC/C(F)=C\CC[C@H](N)C(=O)O [Example A, (2S,5E)-2-amino-6-fluoro-7-[(1-iminoethyl)amino]-5-heptenoic acid, dihydrochloride, monohydrate]
IC50 ([1]; Homo sapiens): 0.1 µM
ED50 [2, 5]: < 0.1 mg/kg
ED50 ([2]; dihydrochloride, monohydrate): <0.1 mg/kg

Compound: CC1CCN=C(N)S1 (stereo not shown) [2-amino 5,6-dihydro 6-methyl 4H-1,3-thiazine]
effect on airway inflammation (airway inflammation): suppressed airway inflammation

Compound: CC(=N)NCCCC[C@H](N)C(=O)Nc1nnn[nH]1 [Example NN, 2S-amino-6-[(1-iminoethyl)amino]-N-(1H-tetrazol-5-yl) hexanamide, hydrate, dihydrochloride]
effects on heart rate, blood pressure and FEV1 ([3]; 200 mg oral, FIG. 4): no apparent effects
effect on haematology or blood biochemistry ([3]; single oral dose): no effect
tolerability ([3]; single oral dose, healthy volunteers and asthmatics, FIG. 4): well tolerated
change in exhaled NO ([4]; 20 mg and 200 mg single oral doses, healthy volunteers and asthmatics, 72 hour assessment, FIG. 3, hydrate, dihydrochloride): rapid reduction in exhaled NO; also recorded: of rapid onset and dose-related
inhibition of exhaled NO ([4]; 200 mg single oral dose, asthma): 95%
duration of decrease in exhaled breath NO ([4]; single oral dose, healthy volunteers and asthmatics): 3 days
i-NOS inhibitory potency compared with NIL amide or NIL dimethylamide (i-NOS): more potent

Compound: CC(=N)NCC(F)=CCC[C@H](N)C(=O)O (mixture of isomers) [Example B, (2S,5E/Z)-2-amino-6-fluoro-7-[(1-iminoethyl)amino]-5-heptenoic acid, Dihydrochloride]
IC50 ([1]; Homo sapiens): 0.2 µM

Compound: N=C1CCCC[C@@H](CCCC[C@H](N)C(=O)O)N1 [Example W, (αS,2R)-α-aminohexahydro-7-imino-1 H-azepine-2-hexanoic acid, Trihydrate Hydrochloride]
IC50 ([1]; Homo sapiens): > 30 µM
ED50 [2, 5]: > 10 mg/kg

Compound: CC(=N)NC/C(F)=C/CC[C@H](N)C(=O)O [Example D, (2S,5Z)-2-amino-6-fluoro-7-[(1-iminoethyl)amino]-5-heptenoic acid, trihydrochloride, dihydrate]
IC50 ([1]; Homo sapiens): 2.5 µM
ED50 [2, 5]: > 10 mg/kg

melting point: 198 to 200 °C
Compound: CC(=NO)NC/C(F)=C\CC[C@H](N)C(=O)O [Example G, (2S,5E)-2-amino-6-fluoro-7-[(1-hydroximinoethyl)amino]-5-heptenoic acid]
ED50 [2, 5]: < 0.1 mg/kg

Compound: N=C(N)NN [amino-guanidine]
inhibition of exhaled NO (exhaled NO): approximately 70%

Compound: COC(=O)[C@@H](N)CCCNC(=N)N[N+](=O)[O-] [L-NAME]
effect on airway inflammation (airway inflammation): suppressed airway inflammation
inhibition of exhaled NO (exhaled NO): approximately 70%

Compound: N=C1CCCC[C@H](CCCC[C@H](N)C(=O)O)N1 [Example Z, (αS,2S)-α-aminohexahydro-7-imino-1H-azepine-2-hexanoic acid, Trihydrate Hydrochloride]
IC50 ([1]; Homo sapiens): < 10 µM

Compound: CC(=N)NC/C=C\CC[C@](C)(N)C(=O)O.Cl.Cl [Example LL, (2S,5Z)-2-amino-2-methyl-7-[(1-iminoethyl)amino]-5-heptenoic acid, Dihydrochloride]
IC50 ([1]; Homo sapiens): 0.8 µM
ED50 [2, 5]: 0.3 mg/kg

Compound: N=C1CCCC[C@H](CCCC[C@H](N)C(=O)O)N1 [Example X, (αS,2S)-α-aminohexahydro-7-imino-1H-azepine-2-hexanoic acid, Trihydrate Hydrochloride]
IC50 [1]: < 10 µM

Compound: N=C1CCCC[C@H](CCCC[C@@H](N)C(=O)O)N1 [Example V, (α,2S)-.α-aminohexahydro-7-imino-1H-azepine-2-hexanoic acid, Trihydrate Hydrochloride]
IC50 ([1]; Homo sapiens): < 10 µM
ED50 [2, 5]: < 3 mg/kg

Compound: 2S-amino-6-[(1-iminoethyl)amino]-N-(1H-tetrazol-5-yl) hexanamide, hydrate, dihydrochloride [Example NN]
selectivity compared with NIL amide or NIL dimethylamide (i-NOS): more selective

Compound: CC(=N)NC/C(F)=C\CC[C@H](N)C(=O)Nc1nnn[nH]1 [Example H, (2S,5E)-2-amino-6-fluoro-7-[(1-iminoethyl)amino]-N-(1H-tetrazol-5-yl) 5-heptenamide, Dihydrochloride]
ED50 [2, 5]: < 0.3 mg/kg
